Measurements: patent US20130324439A1, “Elastic Modulus-modified MicroEnvironment microArrays (eMEArrays) and Uses Thereof” (The Regents of the University of California, priority 2012, published 2013)
Entries after “also recorded” stand apart in the source; their conditions may differ.

Assays:
[1] = tested on: HER2; experiment: Phospho-specific intracellular flow cytometry, ratio of pHER2 to total HER2 in HCC1569; type: cell-based; conditions: for Modulus-dependent regulation of pHER2/HER2 ratio in treated cells: HCC1569, inhibitor for 24 hours on PA gels of differing compliance
Source text: FIG. 13 is a graph showing by using intracellular flow cytometry to analyze the pHER2 and HER2 expression level of HCC1569, that cells on softer gel have higher pHER2/HER2 ratio and less EdU incorporation, vice versa, and then compared to the drug response. Thus stiffness can alter HER2 regulation and drug response. pHER2/HER2 ratios are altered in a modulus-dependent manner. (blue line) pHER2/HER2 ratios as determined with phosphor specific flow cytometry on HCC1569 cells cultured 4 days on different compliance substrata. (red line) Responses to lapatinib determined by EdU incorporation in HCC1569 as a function of substrate compliance
To better understand why changing the elastic modulus of the culture substrata altered sensitivity to lapatinib on PA gels we used phospho-specific intracellular flow cytometry techniques to measure the ratio of phosphorylated HER2 (pHER2, which is considered activated) to total HER2. Cells were first fixed and stained with an antibody that recognized total HER2 on the cell surface, then the cells were permeabilized and stained for pHER2 prior to multicolor analysis on a flow cytometer.
To determine whether the actinomyosin network is involved in regulating the modulus-dependent regulation of HER2, HCC 1569 were exposed to Blebbistatin or Y27632 for 24 hours on PA gels of differing compliance. […] Thus the actinomyosin network is likely important in modulus-dependent regulation of HER2.

[2] = tested on: HER2+ breast cancer cell line HCC1569; experiment: EdU incorporation (DNA synthesis) of HCC1569 on 2D tissue culture plastic, PA gels of tuned elastic modulus or 3D Matrigel; conditions: for Effect of actinomyosin network inhibitor on the modulus-dependent lapatinib response: HCC1569 on PA gels, 1 hr w/inhibitors; for Response to lapatinib (EdU incorporation), 3D Matrigel culture versus 2D tissue culture plastic: 4 days growth then 2 days with 1.5 μM Lapatinib; for Effect of inhibitor added with lapatinib on the 3D context-dependent response (EdU incorporation): 3D Matrigel versus 2D TC plastic; for Effect of inhibitor alone on EdU incorporation: TC plastic or 3D Matrigel, without lapatinib
Method: (§1) The cells were grown on plastic tissue culture dishes (2D) vs. PA gels, and 3D on top, RPMI1640 with 1% FBS and 5% Matrigel 4 days growth then 2 days with 1.5 μM Lapatinib.
(§2) We sought to determine if HER-2 drug response was different between 2D and 3D culture environment and whether that difference is due to different substrata stiffness. Cells were grown on plastic tissue culture dishes (2D), functionalized polyacrylamide cell culture (PA) gels, and in 3D (Matrigel on top, RPMI1640 with 1% FBS and 5% Matrigel 4 days growth then 2 days with 1.5 μM Lapatinib).
We next sought to determine if the actinomyosin network plays a role in this different drug response. Cells were grown in 2D, on PA gels, and in 3D Matrigel with 2 days growth, 1 hr w/inhibitors, then 2 days with 1.5 μM lapatinib.
To determine whether the 3D Matrigel context response was due only to the physiological modulus, we combined the actinomyosin network inhibitors together with lapatinib and compared the responses of cells in 3D to cells cultured on 2D TC plastic.
We next sought to determine if the concentration of type I collagen affected HER-2 targeted drug response. Referring now to FIG. 14, cells were subjected to non-coated tissue culture dishes, Collagen I coated tissue coated dishes for 2 days growth, then 2 days with 1.5 μM lapatinib.

[3] = tested on: HER2- BT549 cells; experiment: EdU incorporation of BT549 on 2D plastic, PA gels or 3D Matrigel; type: cell-based; conditions: PA gel and 3D, 1.5 μM Lapatinib
Method: as §1, §2

[4] = tested on: HER2-expressing breast cancer cell lines; conditions: cited from earlier work
[5] = tested on: HCC1569 cells; experiment: eMEArray drug response, EdU-pixels/nucleus-pixels of HCC1569 on printed microenvironments on PA gels
[6] = then 2 days with 1.5 μM lapatinib

Cc1ccc2c(c1)C(=O)C1(O)CCN(c3ccccc3)C1=N2 (stereo not shown) [Blebbistatin]
Modulus-dependent regulation of pHER2/HER2 ratio in treated cells [1]: absent
Effect of actinomyosin network inhibitor on the modulus-dependent lapatinib response [2, 6]: altered

CS(=O)(=O)CCNCc1ccc(-c2ccc3ncnc(Nc4ccc(OCc5cccc(F)c5)c(Cl)c4)c3c2)o1 [Lapatinib]
Response to lapatinib (EdU incorporation) [3]: unaffected
Response to lapatinib (EdU incorporation) ([3]; listed as lapatinib): did not respond; also recorded: insensitive
Ratio of pHER2 to total HER2 as a function of substrate compliance ([1]; HCC1569 on 400 Pa, 2500 Pa, 4470 Pa, 40 KPa gels or TC plastic, 1.5 uM lapatinib for 4 days): higher ratio of pHER2 to total HER2 on more compliant substrata
Responsiveness in 3D Matrigel culture compared to 2D growth [4]: less responsive
Response of cells on eMEArrays with elastic modulus similar to 40 kPa ([5]; 40 kPa): sensitive response
Response of cells on 400 kPa eMEArrays ([5]; 400 kPa): resistant response
Responses to lapatinib on other molecular microenvironments relative to type 1 collagen alone ([5]; HCC1569, 1.5 μM Lapatinib for 24 hours, EdU for the final 4 hours): widely varied responses
Response to lapatinib (EdU incorporation) on PA gels tuned to 400 Pa, compared with 3D Matrigel ([2]; HCC1569, 400 Pa PA gel crosslinked to type 1 collagen, 1.5 uM lapatinib): very similar results compared to 3D cultures; also recorded: phenocopied the response of HCC1569 grown in 3D Matrigel
Response to lapatinib (EdU incorporation), 3D Matrigel culture versus 2D tissue culture plastic ([2]; HCC1569): inhibited more
Response to lapatinib (EdU incorporation), 3D Matrigel culture versus 2D tissue culture plastic ([2]; HCC1569, listed as lapatinib): more sensitive
Influence of type I collagen concentration on lapatinib response (% EdU incorporation) ([2]; non-coated vs Collagen-I coated TC dishes or PA gels, 2 days growth, then 2 days with 1.5 μM lapatinib): does impact lapatinib response on TC dishes, but less so on low modulus gels

O=S(=O)(c1cccc2c(I)cccc12)N1CCCNCC1 [ML-7]
Effect of inhibitor added with lapatinib on the 3D context-dependent response (EdU incorporation) ([2]; HCC1569): eliminated any context-driven differences
Effect of inhibitor alone on EdU incorporation ([2]; HCC1569): did not have any effect
Effect of actinomyosin network inhibitor on the modulus-dependent lapatinib response [2, 6]: altered
Effect of combination with Lapatinib on cells on 2D PA gels ([2]; combination of ML-7 with Lapatinib, 2D PA gels): synergistic response that caused massive cell death
Effect of lapatinib and ML-7 together on cells in 3D ([2]; lapatinib and ML-7, 3D Matrigel): no such synergistic effect

C[C@@H](N)[C@H]1CC[C@H](C(=O)Nc2ccncc2)CC1 [Y27632]
Modulus-dependent regulation of pHER2/HER2 ratio in treated cells [1]: absent
Effect of inhibitor added with lapatinib on the 3D context-dependent response (EdU incorporation) ([2]; HCC1569): did not alter
Effect of inhibitor alone on EdU incorporation ([2]; HCC1569): did not have any effect
Effect of actinomyosin network inhibitor on the modulus-dependent lapatinib response [2, 6]: altered
